US6284734A, “Inhibitors against prostate-specific antigen” (JCR Pharmaceuticals Co., Ltd., priority 1997, dated 2001)
No end group written: not given here.

Assays:
PSA [1] = molecular target: T1, PSA (Homo sapiens, UniProt P07288); assay: PSA activity assay with Pro-Phe-Arg-MCA substrate, residual activity in coexistence of peptides; assay type: biochemical; conditions: enzyme added PSA, 100% without any Peptide
T1 construct: Using PSA as purified from human urine or seminal plasma; from tissue; host or cells: human urine or seminal plasma
Protocol: Then, investigation was conducted into whether or not these peptides act to inhibit the PSA activity.
While using […] of 100 μM or 10 μM Pro-Phe-Arg-MCA (supplied by Peptide Research. Institute of Japan) as a substrate, 0.1 ml of 100 μM of each of Peptides 1 to 5 was mixed with the substrate and 0.7 ml of 0.1M Tris-hydrochloride buffer (pH 8.0) to allow the reaction to proceed at 37° C. for 5 min, followed by addition of 0.1 ml of 0.12 mg/ml PSA solution. The reaction solution was subjected to time-course measurement of fluorescence intensity (Ex380 nm, Em460nm) at 37° C. for 3 min, and the inhibitory activity value was determined from a slope of the straight line. […] In the above experiments, Pro-Phe-Arg-MCA, Peptides 1 to 5 PSA and kallikrein were used after being dissolved in 0.1M Tris-hydrochloride buffer (pH 8.0).
These findings are in good agreement with the fact that PSA a protease belonging to the kallikrein family .

PSA [2] = molecular target: T1, PSA; assay: Degradation of r-IGFBP3 by PSA, SDS electrophoresis and Western blotting with densitometry; assay type: biochemical; conditions: relative to r-IGFBP3 alone (100.0); r-IGFBP3 + PSA 50.0; 4 nmol Peptide 4
Protocol: And PSA degrades r-IGFB3 into fragments, whereby its degradation process can be confirmed by means of SDS-electrophoresis and Western blotting.
A specimen was prepared by dissolving 0.57 μg of PSA and 2.0 μg of r-IGFBP3 (manufactured by Upstate Co. of USA) in 0.1M Tris-hydrochloride buffer (pH 8.0), followed by reaction at 37° C. for 16 hrs, while another specimen was prepared by dissolving 0.57 μg of PSA, 2.0 μg of r-TGFBP3 (manufactured by Upstate Co. of USA) and 4 nmol of Peptide 4 in 0.1M Tris-hydrochloride buffer (pH 8.0), followed by reaction at 37° C. for 16 hrs. Each of the specimens was subjected to a 4 to 20% gradient gel to conduct SDS electrophoresis under non-reduction in the conditions described by Laemmli et al. (Iqature, 227: 680-685, 1970). After electrophoresis, separated proteins were transferred to a nitrocellulose membrane to carry out Western blotting using anti-IGFBP3 antibody (produced by Biogenesis Co. of USA) as a primary antibody and anti-rabbit antibody (produced by Promega Co. of USA) labeled with horseradish peroxidase (HRP) as a secondary antibody. The HRP activity was detected by chemiluminescence (Renaissance Western Blot Chemiluminescence Reagent, NEN™ produced by Life Science Products Co. of USA), and the protein bands as detected were quantitatively determined by use of a densitometer.

[3] = column A, Substrate:Peptide molar ratio 1:1
[4] = column B, Substrate:Peptide molar ratio 1:10

T1 sequence (P07288 25-261): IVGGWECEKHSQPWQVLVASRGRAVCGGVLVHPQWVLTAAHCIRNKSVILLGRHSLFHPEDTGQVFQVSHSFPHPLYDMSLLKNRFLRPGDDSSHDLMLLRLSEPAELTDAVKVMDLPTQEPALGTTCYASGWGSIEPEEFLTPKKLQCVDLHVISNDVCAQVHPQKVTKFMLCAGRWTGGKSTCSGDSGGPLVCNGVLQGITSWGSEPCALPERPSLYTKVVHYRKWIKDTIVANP

Row | Sequence | Residual activity rate (%) after addition of Peptides (PSA [1]; [3]) [%] | Residual activity rate (%) after addition of Peptides (PSA [1]; [4]) [%] | Residual rate % of the 50 kDa band (PSA [2]) [%]
1 | GFYKKKQSR [Peptide 4, Gly(217)-Phe-Tyr-Lys-Lys-Lys-Gln-Ser-Arg(225)] | 66.5 | 46.6 | 65.1
2 | LNHLKFLNVL [Peptide 3, Leu(194)-Asn-His-Leu-Lys-Phe-Leu-Asn-val-Leu(203)] | 83.5 | 73.3 | 
3 | PSKGRKRGFM [Peptide 5, Pro(226)-Ser-Lys-Gly-Arg-Lys-Arg-Gly-Phe-Met(235)] | 75.1 | 84.8 | 
4 | VNASAVSRLRAYLLP [Peptide 1, val(88)-Asn-Ala-Ser-Ala-Val-Ser-Arg-Leu-Arg-Ala-Tyr-Leu-Leu-Pro(102)] | 107.4 | 100.7 | 
5 | VSSTHRVSDPKF [Peptide 2, Val(127)-Ser-Ser-Thr-His-Arg-Val-Ser-Asp-Pro-Lys-Phe(138)] | 87.5 | 104.8 | 
